Molecules are shown by their SMILES. Structures can show the parent of a compound that is named as a salt. Where two headings read alike, the source gives them in different places.

The values below come from patent publication US10428080B2, “TBK/IKK inhibitor compounds and uses thereof” (Merck Patent GmbH, priority 2015, dated 2019).

Assay [1] has as its system phosphorylation of the IRF-3 protein in MDA-MB-468 cells. Description: pIRF3 immunocytochemistry cell based assay. To be noted: Homo sapiens. An outline of the steps: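 MDA-MB-468 cells got compounds (10-point, 3-fold from 10 uM) for 1 h at 37 °C, then 10 ug/ml Poly(I:C) for 2 h. Fixed, permeabilized cells were immunostained for pIRF3 with AlexaFluor488 and counterstained with PI. % phosphorylation was read by laser scanning cytometry, and IC50 curves were fitted.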

Another assay has as its target T1, IKKε (Homo sapiens, UniProt Q14164).
T1 sequence (Q14164 1-716): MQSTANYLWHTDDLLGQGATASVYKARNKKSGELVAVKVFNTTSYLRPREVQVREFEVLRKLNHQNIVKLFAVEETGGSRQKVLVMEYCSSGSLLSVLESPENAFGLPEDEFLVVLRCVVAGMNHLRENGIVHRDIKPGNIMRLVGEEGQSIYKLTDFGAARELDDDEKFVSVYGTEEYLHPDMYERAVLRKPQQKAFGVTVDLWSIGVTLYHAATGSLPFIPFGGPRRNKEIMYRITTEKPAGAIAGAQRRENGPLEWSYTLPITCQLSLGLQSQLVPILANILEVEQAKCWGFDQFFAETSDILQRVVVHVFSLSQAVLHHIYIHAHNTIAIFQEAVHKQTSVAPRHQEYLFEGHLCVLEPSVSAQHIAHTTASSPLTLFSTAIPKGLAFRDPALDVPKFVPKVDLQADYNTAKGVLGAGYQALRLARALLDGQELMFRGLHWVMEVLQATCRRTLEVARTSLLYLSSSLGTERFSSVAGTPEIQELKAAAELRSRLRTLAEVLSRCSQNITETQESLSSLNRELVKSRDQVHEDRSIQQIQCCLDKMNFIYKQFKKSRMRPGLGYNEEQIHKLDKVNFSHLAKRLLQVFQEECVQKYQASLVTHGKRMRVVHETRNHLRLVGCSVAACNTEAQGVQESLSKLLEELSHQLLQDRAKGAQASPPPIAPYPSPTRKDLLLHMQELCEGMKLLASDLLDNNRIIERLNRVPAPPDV
Description: IKKe Biochemical Assay. Particulars: read-out: IKKε IC50. An outline of the steps:
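Recombinant IKKε and substrate were incubated with compound (10-point 1:4 series, top 30 uM final, 1% DMSO) for 90 min at 25° C, then stopped. Substrate-to-product conversion was read by LabChip microfluidic mobility shift; 10 uM staurosporine served as full-inhibition wells.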

The target of the next assay is T2, TBK1 (Homo sapiens, UniProt Q9UHD2).
T2 sequence (Q9UHD2 1-729): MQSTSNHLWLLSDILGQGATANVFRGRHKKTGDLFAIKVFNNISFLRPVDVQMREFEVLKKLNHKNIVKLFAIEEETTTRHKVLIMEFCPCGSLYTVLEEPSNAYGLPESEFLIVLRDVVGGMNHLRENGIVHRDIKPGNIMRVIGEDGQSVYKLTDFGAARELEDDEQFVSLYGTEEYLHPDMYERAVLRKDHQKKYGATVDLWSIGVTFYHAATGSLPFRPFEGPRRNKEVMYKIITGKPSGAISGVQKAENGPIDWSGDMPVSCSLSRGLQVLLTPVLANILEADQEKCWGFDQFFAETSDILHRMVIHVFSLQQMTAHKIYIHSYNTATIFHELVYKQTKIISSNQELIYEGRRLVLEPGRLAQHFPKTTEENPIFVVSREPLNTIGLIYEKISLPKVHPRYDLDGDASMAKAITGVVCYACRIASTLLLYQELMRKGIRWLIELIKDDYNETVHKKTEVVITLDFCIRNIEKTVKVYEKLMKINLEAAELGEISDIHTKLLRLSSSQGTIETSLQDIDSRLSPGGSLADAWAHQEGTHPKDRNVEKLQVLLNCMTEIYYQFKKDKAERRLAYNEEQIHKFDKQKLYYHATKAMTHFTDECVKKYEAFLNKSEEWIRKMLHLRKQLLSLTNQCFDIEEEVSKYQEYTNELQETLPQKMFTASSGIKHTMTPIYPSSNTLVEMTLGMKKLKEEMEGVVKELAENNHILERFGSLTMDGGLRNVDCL
Description: TBK Biochemical Assay. Particulars: read-out: TBK1 IC50. An outline of the steps: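 TBK1 enzyme and substrate incubated with compounds (10-point 1:4 dilution, top 30 uM final, 1% DMSO) for 90 min at 25° C, then stopped. Substrate/product peaks read by microfluidic mobility-shift (Caliper LabChip); 10 uM staurosporine as full-inhibition control.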

[2] abbreviates: MDA-MB-468 cells, Poly(I:C) stimulation, read-out: pIRF3 IC50.

Turning to `COc1cc(C(=O)N2CCC2)cnc1-c1cc2nccc(-c3ccc(OC4CCOCC4)c(C#N)c3)c2o1` [Compound 415, 5-(2-[5-[(azetidin-1-yl)carbonyl]-3-methoxypyridin-2-yl]furo[3,2-b]pyridin-7-yl)-2-(oxan-4-yloxy)benzonitrile], the IC50 (commonly the midpoint of a concentration-inhibition curve) in assay [1] (MDA-MB-468, read-out: pIRF3 IC50) is 100 to 1000 nM; on IKKε, less than 100 nM; on TBK1 it was less than 100 nM.

With `COc1cc(C(=O)N2CCCC2)cnc1-c1cc2nccc(-c3ccc(OC4CCOCC4)c(C#N)c3)c2o1` [Compound 416, 5-(2-[3-methoxy-5-[(pyrrolidin-1-yl)carbonyl]pyridin-2-yl]furo[3,2-b]pyridin-7-yl)-2-(oxan-4-yloxy)benzonitrile hydrochloride], the IC50 is 100 to 1000 nM in assay [1] (setting [2]), less than 100 nM on IKKε and less than 100 nM at TBK1.

For `COc1cc(C(=O)N(C)C)ncc1-c1cc2nccc(-c3ccc(OC4CCNCC4(F)F)c(C#N)c3)c2o1` (stereo not drawn) [Compound 418, 5-(7-[3-cyano-4-[(3,3-difluoropiperidin-4-yl)oxy]phenyl]furo[3,2-b]pyridin-2-yl)-4-methoxy-N,N-dimethylpyridine-2-carboxamide hydrochloride], the IC50 in assay [1] (setting [2]) is 100 to 1000 nM; at IKKε it was less than 100 nM; at TBK1, less than 100 nM.

As to `COc1cc(C(=O)N(C)C)ncc1-c1cc2nccc(-c3ccc(OC4CCN(C)CC4(F)F)c(C#N)c3)c2o1` (stereo not drawn) [Compound 419, 5-(7-[3-cyano-4-[(3,3-difluoro-1-methylpiperidin-4-yl)oxy]phenyl]furo[3,2-b]pyridin-2-yl)-4-methoxy-N,N-dimethylpyridine-2-carboxamide], the IC50 in assay [1] (setting [2]) was 100 to 1000 nM; on IKKε, less than 100 nM; at TBK1, less than 100 nM.

`COc1cc(C(=O)N2CC3COCC3C2)cnc1-c1cc2nccc(-c3ccc(NC4CCOCC4)c(C#N)c3)c2o1` (stereo not drawn) [Compound 420, 5-[2-[5-([hexahydro-1H-furo[3,4-c]pyrrol-5-yl]carbonyl)-3-methoxypyridin-2-yl]furo[3,2-b]pyridin-7-yl]-2-[(oxan-4-yl)amino]benzonitrile]: the IC50 in assay [1] (setting [2]) was 100 to 1000 nM; on IKKε, less than 100 nM; on TBK1, less than 100 nM.

As for `COc1cc(C(=O)NC(C)(C)CCN(C)C)cnc1-c1cc2nccc(-c3ccc(NC4CCOCC4)c(C#N)c3)c2o1` [Compound 422, 6-(7-[3-cyano-4-[(oxan-4-yl)amino]phenyl]furo[3,2-b]pyridin-2-yl)-N-[4-(dimethylamino)-2-methylbutan-2-yl]-5-methoxypyridine-3-carboxamide], the IC50 (in assay [1] (setting [2]); on IKKε; at TBK1) was less than 100 nM each time.

As for `COc1cc(C(=O)NC(C)(C)CCN(C)C)ncc1-c1cc2nccc(-c3ccc(NC4CCOCC4)c(C#N)c3)c2o1` [Compound 423, 5-(7-[3-cyano-4-[(oxan-4-yl)amino]phenyl]furo[3,2-b]pyridin-2-yl)-N-[4-(dimethylamino)-2-methylbutan-2-yl]-4-methoxypyridine-2-carboxamide], the IC50 is 100 to 1000 nM in assay [1] (setting [2]), less than 100 nM on IKKε and less than 100 nM at TBK1.

Regarding `COc1cc(C(=O)N(C)C)ncc1-c1cc2nccc(-c3ccc(OC4CN(C)C4)c(C#N)c3)c2o1` [Compound 424, 5-(7-[3-cyano-4-[(1-methylazetidin-3-yl)oxy]phenyl]furo[3,2-b]pyridin-2-yl)-4-methoxy-N,N-dimethylpyridine-2-carboxamide], the IC50 (in assay [1] (setting [2]); at IKKε; on TBK1) was 100 to 1000 nM throughout.

On to `COc1cc(C(=O)N(C)C)cnc1-c1cc2nccc(-c3ccc(OC4CN(C)C4)c(C#N)c3)c2o1` [Compound 425, 6-(7-[3-cyano-4-[(1-methylazetidin-3-yl)oxy]phenyl]furo[3,2-b]pyridin-2-yl)-5-methoxy-N,N-dimethylpyridine-3-carboxamide], for which the IC50 (in assay [1] (setting [2]); on IKKε; at TBK1) was 100 to 1000 nM in each case.

`COc1cc(C(=O)N(C)C)cnc1-c1cc2nccc(-c3ccc(OC4CCN(C)C4)c(C#N)c3)c2o1` (stereo not drawn) [Compound 426, 6-(7-[3-cyano-4-[(1-methylpyrrolidin-3-yl)oxy]phenyl]furo[3,2-b]pyridin-2-yl)-5-methoxy-N,N-dimethylpyridine-3-carboxamide]: the IC50 (in assay [1] (setting [2]); at IKKε; at TBK1) was 100 to 1000 nM throughout.

As for `COc1cc(C(=O)N(C)C)cnc1-c1cc2nccc(-c3ccc(OC4CCN(C(C)C)C4)c(C#N)c3)c2o1` (stereo not drawn) [Compound 427, 6-(7-(3-cyano-4-(1-isopropylpyrrolidin-3-yloxy)phenyl)furo[3,2-b]pyridin-2-yl)-5-methoxy-N,N-dimethylnicotinamide], the IC50 (in assay [1] (setting [2]); on IKKε; at TBK1) was 100 to 1000 nM in each case.

Consider `COc1cc(C(=O)N(C)C)ncc1-c1cc2nccc(-c3ccc(OC4CCN(C(C)C)C4)c(C#N)c3)c2o1` (stereo not drawn) [Compound 428, 5-[7-(3-cyano-4-[[1-(propan-2-yl)pyrrolidin-3-yl]oxy]phenyl)furo[3,2-b]pyridin-2-yl]-4-methoxy-N,N-dimethylpyridine-2-carboxamide], for which the IC50 was 100 to 1000 nM in assay [1] (setting [2]), 1000 to 5000 nM at IKKε and 1000 to 5000 nM on TBK1.

`COc1cc(C(=O)N(C)C)ncc1-c1cc2nccc(-c3ccc(OC4CCNC4)c(C#N)c3)c2o1` (stereo not drawn) [Compound 429, 5-[7-[3-cyano-4-(pyrrolidin-3-yloxy)phenyl]furo[3,2-b]pyridin-2-yl]-4-methoxy-N,N-dimethylpyridine-2-carboxamide]: the IC50 was 100 to 1000 nM in assay [1] (setting [2]), less than 100 nM at IKKε and less than 100 nM on TBK1.

As to `COc1cc(C(=O)N(C)C)ncc1-c1cc2nccc(-c3ccc(OC4CCN(C)C4)c(C#N)c3)c2o1` (stereo not drawn) [Compound 430, 5-(7-[3-cyano-4-[(1-methylpyrrolidin-3-yl)oxy]phenyl]furo[3,2-b]pyridin-2-yl)-4-methoxy-N,N-dimethylpyridine-2-carboxamide], the IC50 (in assay [1] (setting [2]); on IKKε; at TBK1) was 100 to 1000 nM each time.

Consider `COc1cc(C(=O)N(C)C)ncc1-c1cc2nccc(-c3ccc(NC4CCNC4)c(C#N)c3)c2o1` (stereo not drawn) [Compound 431, 5-(7-[3-cyano-4-[(pyrrolidin-3-yl)amino]phenyl]furo[3,2-b]pyridin-2-yl)-4-methoxy-N,N-dimethylpyridine-2-carboxamide], for which the IC50 (in assay [1] (setting [2]); on IKKε; on TBK1) was less than 100 nM each time.

Consider `COc1cc(C(=O)N(C)C)cnc1-c1cc2nccc(-c3ccc(NC4CCNC4)c(C#N)c3)c2o1` (stereo not drawn) [Compound 432, 6-(7-[3-cyano-4-[(pyrrolidin-3-yl)amino]phenyl]furo[3,2-b]pyridin-2-yl)-5-methoxy-N,N-dimethylpyridine-3-carboxamide], for which the half-maximal inhibitory concentration (IC50) (in assay [1] (setting [2]); at IKKε; on TBK1) was less than 100 nM throughout.
